Source: patent EP0961591B1, “METHOD TO ENHANCE TISSUE AC[…] RADIOLABELED COMPOUNDS” (BOARD OF SUPERVISORS OF LOUISIANA STATE UNIVERSITY AND …, priority 1997, dated 1999)
Bridges are numbered along the chain shown (N, C = ends). Where no end group is shown, it is not given here. [ ]: non-standard residue; d: D form.

Tests used:
IMR-32 cells = assay: Nuclear translocation (Percoll density gradient fractionation); format: cell-based, human
Experimental: The cells were washed twice in media at 4°C and resuspended in cold isotonic sucrose. The labeled cells were passed through a ball-bearing homogenizer three times to disrupt cell membranes while leaving approximately 95% of the cell nuclei intact, according to the method of Balch et al., Arch. Biochem. Biophys., vol. 240, p. […] The cell homogenate was mixed with Percoll to give a final concentration of […] Percoll and spun at 20,400 rpm in a Beckman 40.2 rotor for 45 min to generate a density gradient. Density marker beads (Pharmacia) were used to indicate density levels in the tube. The contents of the tube were fractionated in an ISCO Density Gradient Fractionator. The resulting tubes were assayed for content of radiolabeled somatostatin or analogs, DNA to indicate nuclei, protein, the plasma membrane marker 5'-nucleotidase, and the lysosome marker N-acetylglucosaminidase. The usual assumption was made that the radioactivity measured in fractions rich in a certain cell component was in fact associated with that component; e.g., the radioactivity measured in a fraction rich in plasma membrane was due to association of the radiolabeled compound with the plasma membrane.
The density distribution is represented by the triangles in the figures. Nuclear fractions were found in the density gradient represented by Tubes 12-15, and membrane fractions by Tubes 0-6. […] Radiodecaying nuclei will then ionize DNA, resulting in cellular damage.

[1] = system: Human placental-derived vascular endothelial cells; assay: Binding and internalization in angiogenic vascular endothelial cells; conditions: acid wash
Text: Human placental-derived vascular endothelial cells were used to assay for cell binding of the somatostatin analog, ^125I-JIC-2D. The radioligand, a somatostatin analog, ^125I-JIC-2D, was made by solid phase peptide synthesis as described in U.S. Patent No. 5,597,894. This peptide has an amino acid sequence of the following: D-Lys-D-Tyr-D-Lys-D-Tyr-D-Lys-c[Cys-Phe-D-Trp-Lys-Thr-Cys]-Thr-NH2. The cells were obtained by growing discs of human placental veins in fibrinclots for 14 days. […] These discs and their angiogenic sprouts are harvested mechanically and dissociated by vortexing. The vein discs are then discarded and the endothelial cells pooled. Cells were harvested, counted with a hemocytometer, and resuspended in binding buffer (Minimum Essential Medium (MEM), 10 mM Hepes, 0.01 % BSA). A standard assay used 500,000 cells in 1 ml of binding buffer. […] At the termination of the experiment, the incubation medium was removed, the cells were rinsed twice with Hanks balanced salt solution (HBSS), and the radioactivity in the cells determined using a gamma counter. This level of radioactivity represents total binding, which includes both membrane-bound and internalized fractions. Specific binding was determined by calculating the difference in the levels of measured radioactivity without the unlabeled competitor minus the radioactivity with the unlabeled competitor. […]

| Substance | cellular distribution (membrane vs nuclear fractions) (IMR-32 cells; 1 hr) | cellular distribution (membrane vs nuclear fractions) (IMR-32 cells; 4 hr) | cellular distribution (membrane vs nuclear fractions) (IMR-32 cells; 24 hr) | binding and internalization [1] |
| --- | --- | --- | --- | --- |
| ^125I-somatostatin: radiolabeled native somatostatin (AGCKNFFWKTFTSC; disulfide 3-14 (inferred); ends not checked; also: 125I label, position not given here; UniProt P61278 103-116, looked up) | both membrane binding and small amounts of nuclear binding | the plasma membrane binding appeared to have peaked and the nuclear fraction was dissipating | essentially no plasma membrane or nuclear binding was seen | – |
| [dK][dY][dK][dY][dK]CF[dW]KTCT-NH2 (disulfide 6-11) [^125I-JIC-2D] | – | – | – | the vast majority of the radioligand was internalized into the cell |
